Tested on: anoxic encephalopathy and ischemic events
Experiment: Clinical case reports of patients with anoxic encephalopathy or ischemic events treated with N-acetylcystein
Format: in vivo, human
Description: A person was admitted to the intensive care unit in a deep coma. Several hours prior to the admission, they suffered from a persistent ventricular arrhythmia that led to a cardiac arrest. They required nine successive electroshocks in order to reestablish their regular cardiac rhythm. The total interruption time of their blood supply to the brain was considered to be more than ten minutes. […] Their pupils were fixed and dilated, and they were placed on a mechanical ventilation. As they were unable to trigger the ventilator by themself, they were placed on an automatic mode of mechanical ventilation. There was no improvement in their condition over the next forty-eight hours. A neurologist determined their condition to be irreversible and hopeless. A second neurologist concurred. During the forty-eight hour interval, the patient was given 600 mg of N-acetylcystein in a twenty percent solution, administered via a nasal-gastric tube every twelve hours. […] They awakened and was able to communicate by head nods and facial expressions.
A high school teacher went into a cardiac arrest while driving in their car. By the time they arrived at a hospital emergency room and was resuscitated, a period of twenty to thirty minutes of an interruption of the blood supply to the brain had elapsed. Even though the cardiac resuscitation efforts were successful, they remained in a deep coma, a vegetative state, and required a life supporting mechanical ventilation. Over the next two years, they remained on mechanical ventilation, gastrostomy tube feedings, and in a coma without any improvement in their cerebral or neurological functions. Their prognosis for recovery was considered hopeless.
Approximately two years after the cardiac arrest, they were administered 600 mg of N-acetylcystein in a twenty percent solution twice daily. Over the next several months, they made a remarkable recovery. […] They became alert and able to respond initially to tacit and aural stimuli, and later they were able to understand simple sentences.
A person lapsed into a coma from a cerebral hemorrhage secondary to a vascular stroke. As their condition continued to deteriorate, they required a life supporting mechanical ventilation. Several months later they developed a brain abscess that required a craniotomy. This was followed by the appearance of an intense seizure disorder.
Following the surgery, it became possible to gradually wean […] from the respirator, but […] remained in a semi-vegetative state, unable to respond to aural stimuli and fed by a gastrostomy tube. […] remained completely bedridden.
More than three years after the initial event, they were administered 600 mg of N-acetylcystein in a twenty percent solution twice daily via their gastrostomy tube. Over the next several months, they made a remarkable recovery. […] By the third month of treatment, they were able to sit in a wheelchair and express their wishes to be driven around the facility where they resided. By the fourth month of the treatment, they regained the capacity to express themself verbally even though it was restricted to a vocabulary of mono and disyllabic words. They also regained the ability to lift their head, which i previously lay flexed upon their chest, without the use of an assisting device. […] Their neurological and cerebral recoveries continued to progress.
A medical technician experienced a series of multiple strokes that led to a semi-comatose state lasting more than two years. Their medical condition deteriorated over time with the development of multi-organ failures. They required a mechanical ventilation and hemo-dialysis for life support. Three years after the onset of their condition and several months after all efforts to wean them from the respirator failed, they were initially administered 600 mg of N-acetylcystein in a twenty percent solution twice daily via a gastrostomy tube.

Structure (SMILES): CC(=O)N[C@@H](CS)C(=O)O [N-acetylcystein]
- Overall therapeutic efficacy indicated by the four cases (acute phase and many months or years after the initial event): reversing a coma as well as other neurological deficits
- Breathing / respirator dependence, Case No. 1 (person on mechanical ventilation, 600 mg every twelve hours via nasal-gastric tube, forty-eight hour period): able to breath partially on their own without the respirator
- Coma / neurological outcome, Case No. 2 (person, coma for two years after cardiac arrest, 600 mg in twenty percent solution twice daily, over several months): awakened from their coma
- Verbal response, Case No. 2 (person, coma for two years, 600 mg twice daily, by the fourth month of treatment): able to respond verbally
- Coma / neurological outcome, Case No. 1 (person, deep coma after cardiac arrest, 600 mg in twenty percent solution via nasal-gastric tube every twelve hours, forty-eight hour period): completely revived from their coma
- Respirator dependence, Case No. 4 (person, multiple strokes, semi-comatose, ventilated, 600 mg twice daily via gastrostomy tube increased to 2400 mg daily): improved and no longer needed the respirator
- Ambulation, Case No. 3 (person, previously bedridden, 600 mg twice daily via gastrostomy tube, by the fifth month of treatment): able to ambulate more than one hundred steps with the aid of a walker or the wheelchair
- Neurological outcome, Case No. 3 (person, semi-vegetative state more than three years after cerebral hemorrhage/stroke, 600 mg twice daily via gastrostomy tube, over several months): became completely alert and able to respond to simple verbal commands
- Respirator dependence, Case No. 2 (person, two years on mechanical ventilation, 600 mg twice daily): no longer needed the respirator

From patent US20020165281A1, “Treatment of anoxic encephalophathy by administration of N-acetylcystein” (priority 2001, published 2002)
